Experimental data as given in PMC7034945 (RSC Advances, 2019).

Tested on: HIV-1 NL4-3 virus
Test: Anti-HIV-1 activity, multicycle assay with HIV-1 NL4-3 in TZM-bl cells
Format: cell-based
Settings: for EC50: Human immunodeficiency virus 1, NL43, TZM-bl; for SI (selectivity index, ratio of CC50/EC50): Table 1, TZM-bl cells

| Structure (SMILES) | EC50 [µM] | SI (selectivity index, ratio of CC50/EC50) |
| --- | --- | --- |
| COc1ccc(N(C)C(=O)[C@H](Cc2cc(F)cc(F)c2)NC(=O)c2cn(Cc3ccccc3C)nn2)cc1 [I-8a, (S)-N-(3-(3,5-Difluorophenyl)-1-((4-methoxyphenyl)(methyl)amino)-1-oxopropan-2-yl)-1-(2-methylbenzyl)-1H-1,2,3-triazole-4-carboxamide] | 8.85 ± 2.69 | >2.18 |
| COc1ccc(N(C)C(=O)[C@H](Cc2cc(F)cc(F)c2)NC(=O)c2cn(Cc3cccc(C)c3)nn2)cc1 [I-8b, (S)-N-(3-(3,5-Difluorophenyl)-1-((4-methoxyphenyl)(methyl)amino)-1-oxopropan-2-yl)-1-(3-methylbenzyl)-1H-1,2,3-triazole-4-carboxamide] | 9.43 ± 2.31 | >2.04 |
| COc1ccc(N(C)C(=O)[C@H](Cc2cc(F)cc(F)c2)NC(=O)c2cn(Cc3ccc(C)cc3)nn2)cc1 [I-8c, (S)-N-(3-(3,5-Difluorophenyl)-1-((4-methoxyphenyl)(methyl)amino)-1-oxopropan-2-yl)-1-(4-methylbenzyl)-1H-1,2,3-triazole-4-carboxamide] | 10.6 ± 3.46 | >1.82 |
| COc1ccc(N(C)C(=O)[C@H](Cc2cc(F)cc(F)c2)NC(=O)c2cn(Cc3ccccc3Cl)nn2)cc1 [I-8d, (S)-1-(2-Chlorobenzyl)-N-(3-(3,5-difluorophenyl)-1-((4-methoxyphenyl)(methyl)amino)-1-oxopropan-2-yl)-1H-1,2,3-triazole-4-carboxamide] | 9.63 ± 2.04 | >1.92 |
| COc1ccc(N(C)C(=O)[C@H](Cc2cc(F)cc(F)c2)NC(=O)c2cn(Cc3cccc(Cl)c3)nn2)cc1 [I-8e, (S)-1-(3-Chlorobenzyl)-N-(3-(3,5-difluorophenyl)-1-((4-methoxyphenyl)(methyl)amino)-1-oxopropan-2-yl)-1H-1,2,3-triazole-4-carboxamide] | 8.33 ± 1.41 | >2.22 |
| COc1ccc(N(C)C(=O)[C@H](Cc2cc(F)cc(F)c2)NC(=O)c2cn(Cc3ccc(Cl)cc3)nn2)cc1 [I-8f, (S)-1-(4-chlorobenzyl)-N-(3-(3,5-difluorophenyl)-1-((4-methoxyphenyl)(methyl)amino)-1-oxopropan-2-yl)-1H-1,2,3-triazole-4-carboxamide] | 8.7 ± 1.65 | >2.13 |
| COc1ccc(N(C)C(=O)[C@H](Cc2cc(F)cc(F)c2)NC(=O)c2cn(Cc3ccccc3C#N)nn2)cc1 [I-8g, (S)-1-(2-Cyanobenzyl)-N-(3-(3,5-difluorophenyl)-1-((4-methoxyphenyl)(methyl)amino)-1-oxopropan-2-yl)-1H-1,2,3-triazole-4-carboxamide] | 9.61 ± 2.07 | >1.96 |
| COc1ccc(N(C)C(=O)[C@H](Cc2cc(F)cc(F)c2)NC(=O)c2cn(Cc3cccc(C#N)c3)nn2)cc1 [I-8h, (S)-1-(3-Cyanobenzyl)-N-(3-(3,5-difluorophenyl)-1-((4-methoxyphenyl)(methyl)amino)-1-oxopropan-2-yl)-1H-1,2,3-triazole-4-carboxamide] | 3.58 ± 0.64 | >5.27 |
| COc1ccc(N(C)C(=O)[C@H](Cc2cc(F)cc(F)c2)NC(=O)c2cn(Cc3ccc(C#N)cc3)nn2)cc1 [I-8i, (S)-1-(4-Cyanobenzyl)-N-(3-(3,5-difluorophenyl)-1-((4-methoxyphenyl)(methyl)amino)-1-oxopropan-2-yl)-1H-1,2,3-triazole-4-carboxamide] | 5.84 ± 1.53 | >3.23 |
| COc1ccc(N(C)C(=O)[C@H](Cc2cc(F)cc(F)c2)NC(=O)c2cn(Cc3ccccc3[N+](=O)[O-])nn2)cc1 [I-8j, (S)-N-(3-(3,5-Difluorophenyl)-1-((4-methoxyphenyl)(methyl)amino)-1-oxopropan-2-yl)-1-(2-nitrobenzyl)-1H-1,2,3-triazole-4-carboxamide] | 3.27 ± 0.78 | >5.55 |
